# Measurements from PubChem BioAssay (NCI).
#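 Assay format: 96-well plates, 48-hour exposure. Here, GI50 denotes the concentration required for 50% inhibition of growth. TGI marks complete inhibition of growth.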
# Tests used:
# Assay in all cases: NCI tumour cell line growth inhibition, 48 h
# [1] = test system: NCI-H522 lung
# [2] = test system: RPMI-8226 leukemia
# [3] = test system: 786-0 renal
# [4] = test system: DU-145 prostate
# [5] = test system: M14 melanoma
# [6] = test system: T-47D breast
# [7] = test system: A498 renal
# [8] = test system: CCRF-CEM leukemia
# [9] = test system: UACC-257 melanoma
# [10] = test system: NCI-H226 lung
# [11] = test system: NCI-H23 lung
# [12] = test system: SF-268 CNS
# [13] = test system: SK-OV-3 ovarian
# [14] = test system: MDA-MB-231 breast
# [15] = test system: HOP-92 NSCLC
# [16] = test system: U251 CNS
# [17] = test system: NCI-H460 lung
# [18] = test system: HS 578T breast
# [19] = test system: MDA-MB-435
# [20] = test system: SR leukemia
# [21] = test system: PC-3 prostate
# [22] = test system: SN12C renal
# [23] = test system: HT29 colon
# [24] = test system: SF-295 CNS
# [25] = test system: HCT-116 colon
# [26] = test system: SK-MEL-5 melanoma
# [27] = test system: ACHN renal
# [28] = test system: UO-31 renal
# [29] = test system: OVCAR-5 ovarian
# [30] = test system: MOLT-4 leukemia
# [31] = test system: RXF 393 renal
# [32] = test system: SK-MEL-28 melanoma
# [33] = test system: OVCAR-3 ovarian
# [34] = test system: KM12 colon
# [35] = test system: HL-60(TB) leukemia
# [36] = test system: K-562 leukemia
# [37] = test system: COLO 205 colon
# [38] = test system: EKVX NSCLC
# [39] = test system: MCF7 breast
# [40] = test system: BT-549 breast
# [41] = test system: MALME-3M melanoma
# [42] = test system: A549 NSCLC
# [43] = test system: LOX IMVI melanoma
# [44] = test system: SW-620 colon
# [45] = test system: SNB-75 CNS
# [46] = test system: HCC-2998 colon
# [47] = test system: HOP-62 NSCLC
# [48] = test system: TK-10 renal
# [49] = test system: OVCAR-4 ovarian
# [50] = test system: IGROV1 ovarian
# [51] = test system: SK-MEL-2 melanoma
# [52] = test system: UACC-62 melanoma
# [53] = test system: SF-539 CNS
# [54] = test system: NCI/ADR-RES ovarian
# [55] = test system: HCT-15 colon
# [56] = test system: CAKI-1 renal
# [57] = test system: OVCAR-8 ovarian
# [58] = test system: SNB-19 CNS
smiles,measurement,setting,value
Cn1cc(-c2csc(-c3c[nH]c4ccccc34)n2)c2cccnc21,GI50,[1],211 nM
same,TGI,[1],2010 nM
same,GI50,[2],1840 nM
same,TGI,[2],> 100000 nM
same,GI50,[3],2660 nM
same,TGI,[3],> 91100 nM
same,GI50,[4],1050 nM
same,TGI,[4],34400 nM
same,GI50,[5],356 nM
same,TGI,[5],> 100000 nM
same,GI50,[6],783 nM
same,TGI,[6],> 27500 nM
same,GI50,[7],688 nM
same,TGI,[7],46600 nM
same,GI50,[8],534 nM
same,TGI,[8],> 100000 nM
same,GI50,[9],1650 nM
same,TGI,[9],> 90300 nM
same,GI50,[10],2550 nM
same,TGI,[10],> 66000 nM
same,GI50,[11],1160 nM
same,TGI,[11],> 100000 nM
same,GI50,[12],813 nM
same,TGI,[12],> 100000 nM
same,GI50,[13],966 nM
same,TGI,[13],23000 nM
same,GI50,[14],1330 nM
same,TGI,[14],86200 nM
same,GI50,[15],915 nM
same,TGI,[15],14100 nM
same,GI50,[16],415 nM
same,TGI,[16],16200 nM
same,GI50,[17],370 nM
same,TGI,[17],> 42200 nM
same,GI50,[18],5900 nM
same,TGI,[18],> 100000 nM
same,GI50,[19],80.4 nM
same,TGI,[19],323 nM
same,GI50,[20],437 nM
same,TGI,[20],> 100000 nM
same,GI50,[21],988 nM
same,TGI,[21],> 66700 nM
same,GI50,[22],1470 nM
same,TGI,[22],> 100000 nM
same,GI50,[23],324 nM
same,TGI,[23],1720 nM
same,GI50,[24],305 nM
same,TGI,[24],6090 nM
same,GI50,[25],363 nM
same,TGI,[25],> 100000 nM
same,GI50,[26],391 nM
same,TGI,[26],11700 nM
same,GI50,[27],970 nM
same,TGI,[27],> 100000 nM
same,GI50,[28],523 nM
same,TGI,[28],> 44100 nM
same,GI50,[29],8880 nM
same,TGI,[29],> 100000 nM
same,GI50,[30],798 nM
same,TGI,[30],> 100000 nM
same,GI50,[31],1100 nM
same,TGI,[31],9840 nM
same,GI50,[32],3120 nM
same,TGI,[32],> 100000 nM
same,GI50,[33],297 nM
same,TGI,[33],3000 nM
same,GI50,[34],413 nM
same,TGI,[34],77200 nM
same,GI50,[35],343 nM
same,TGI,[35],> 100000 nM
same,GI50,[36],232 nM
same,TGI,[36],> 100000 nM
same,GI50,[37],431 nM
same,TGI,[37],6980 nM
same,GI50,[38],636 nM
same,TGI,[38],> 40500 nM
same,GI50,[39],1070 nM
same,TGI,[39],> 100000 nM
same,GI50,[40],1160 nM
same,TGI,[40],38700 nM
same,GI50,[41],215 nM
same,TGI,[41],16200 nM
same,GI50,[42],656 nM
same,TGI,[42],> 64400 nM
same,GI50,[43],537 nM
same,TGI,[43],> 100000 nM
same,GI50,[44],367 nM
same,TGI,[44],> 72500 nM
same,GI50,[45],542 nM
same,TGI,[45],4820 nM
same,GI50,[46],1270 nM
same,TGI,[46],> 100000 nM
same,GI50,[47],718 nM
same,TGI,[47],27000 nM
same,GI50,[48],1560 nM
same,TGI,[48],18100 nM
same,GI50,[49],2890 nM
same,TGI,[49],> 100000 nM
same,GI50,[50],308 nM
same,TGI,[50],22900 nM
same,GI50,[51],498 nM
same,GI50,[52],448 nM
same,TGI,[52],> 100000 nM
same,GI50,[53],655 nM
same,TGI,[53],9050 nM
same,GI50,[54],280 nM
same,TGI,[54],12400 nM
same,GI50,[55],503 nM
same,TGI,[55],> 100000 nM
same,GI50,[56],291 nM
same,TGI,[56],> 37900 nM
same,GI50,[57],776 nM
same,TGI,[57],> 91900 nM
same,GI50,[58],825 nM
same,TGI,[58],> 75100 nM
